Laboratory results: US5663154A, “2',3'-dideoxy-3'-fluoro-purine ribonucleosides” (Glaxo Wellcome Inc., priority 1992, dated 1997)
Where “and” joins values, the source holds several entries; their conditions need not be identical. Equal values may be shown once.

Assays:
[1] = test system: Hepatitis B Virus (HBV); assay: Antiviral activity against HBV: extracellular HBV DNA from HepG2 2.2.15 cells; format: cell-based, human HBV; settings: culture medium, treated at 25 μm (so in the source)
Description: Anti-HBV activity of compounds of formula (I) was determined using a method described by Korba B. E. and Milman G., Antiviral Research, 1991, Vol.15, pp217-228.
The assay utilises the human HBV producer cell line of HepG2, 2.2.15, described and characterized by Sells et al., PNAS 84, 1005 (1987) and J. Virol. […] This cell line was utilized in vitro to identify compounds with anti-HBV activity.
Supernatant media containing extracellular virion DNA (Dane particles) were harvested on days 0, 4 and 9, treated with proteinase K (1 mg/mL) and sodium dodecyl sulfate (1%), and incubated at 50° C. for one hour. DNA was extracted with equal volumes of phenol followed by chloroform and then precipitated using ammonium acetate and propanol. […] After precipitation by ammonium acetate and propanol, the intracellular DNA precipitate was dissolved, cut by restriction endonuclease, Hind III, applied co agarose gel and then treated as described by Southern to determine the quantity of replicative intermediate forms. The antiviral effect of the drug was determined by measuring at least a 100-fold reduction in the amount of Dane particles extruded into the culture medium and a similar decrease in the intracellular replicative intermediates.

[2] = test system: HIV; assay: Antiviral activity against HIV: reversal of cytopathic effect in MT4 cells, propidium iodide dye uptake; format: cell-based; settings: Human immunodeficiency virus 1, 120 h, HIV-1 (strain 3B) or HIV-2 (Zagury strain), not stated which, 5 days
Description: Anti-HIV activity of compounds of formula (I) was determined using the method of Averett D. R., 1989, J. Virol. Methods, 23, pp263-276, by measuring the ability of the compound to reverse the cytopathic effect of HIV infection. This was determined by a quantitative assessment of cell growth monitored at the fifth day post infection by a propidium iodide dye uptake test. MT4 cells were incubated with 100XTCID50 of HIV-1 (strain 3B) or HIV-2 (Zagury strain) for one hour prior to addition of the compound in six different concentrations varying from 2 to 200 μM. The cells were allowed to incubate for five days at 37° C. On day 5, NP-40, a detergent, was added to a final concentration of 0.5% immediately prior to analysis. Cell number was determined using a method which measures the fluorescence of a dye (propidium iodide) which binds to DNA. Since the amount of DNA is directly proportional to cell number, this fluorescence assay is an indication of cell growth. While uninfected cells double in cell number several times during the five days duration of the assay, HIV-infected cells grow very little, if at all. A compound which reverses the cytopathic effect of HIV would allow for rapid cell growth, approaching that of the mock-infected cells. […]

CN(C)c1nc(N)nc2c1ncn2[C@H]1C[C@H](F)[C@@H](CO)O1 [Example 13, 2-Amino-9-(2,3-dideoxy-3-fluoro-β-D-erythro-pentofuranosyl)-6-(dimethylamino)-9H-purine]
Extracellular HBV DNA, Day 0 ([1]; Day 0): 60 pg/mL and 99 pg/mL and 77 pg/mL and 67 pg/mL | Extracellular HBV DNA, Day 4 ([1]; Day 4): 57 pg/mL and 33 pg/mL and 53 pg/mL and 51 pg/mL | IC50 [2]: 8 µM
